Results on 56 molecules are retold here after patent publication US8946234B2, “Halogen-substituted compounds” (Bayer CropScience AG, priority 2008, dated 2015).

A short description of one data set: physchem. The class given is physicochemical.
Details: not given
Here is the method: ^a) Note regarding the determination of the log P values and mass detection: The log P values given were determined in accordance with EEC Directive 79/831 Annex V.A8 by HPLC (High Performance Liquid Chromatography) on a phase inversion column (C18). Agilent 1100 LC system; 50*4.6 Zorbax Eclipse Plus C18 1.8 micron; eluent A: acetonitrile (0.1% formic acid); eluent B: water (0.09% formic acid); linear gradient from 10% acetonitrile to 95% acetonitrile in 4.25 min, then 95% acetonitrile for a further 1.25 min; oven temperature 55° C.; flow: 2.0 ml/min. The mass detection is carried out via an Agilend MSD system.
For `O=C(NCc1ccccc1)c1cc(NC(=O)c2cnc(C(F)(F)C(F)(F)F)nc2C(F)F)ccc1Cl` [Ib-29], the logP was 3.51^a).

In the case of `Cn1nc(C(F)(F)F)c(Br)c1C(=O)Nc1ccc(Cl)c(C(=O)NCc2ccccc2)c1` [Ik-23], the logP is given as 3.44^a).

`Cn1nc(C(F)(F)F)c(Br)c1C(=O)Nc1ccc(Cl)c(C(=O)NCC(F)(F)F)c1` [Ik-160]: the logP is on record as 3.17^a).

`CC(C)N(C(=O)c1c(C(F)(F)F)c(C(F)(F)C(F)(F)F)nn1C)c1ccc(Cl)c(C(=O)NCC(F)(F)F)c1` [Ik-139]: the logP is reported as 4.02^a).

Turning to `Cn1nc(C(F)(F)C(F)(F)F)c(C(F)(F)F)c1C(=O)Nc1cc(Br)c(Br)c(C(=O)NCC(F)(F)F)c1` [Ik-209], the logP is on record as 4.18^a).

Take `CC(NC(=O)c1cc(NC(=O)c2cnc(C(F)(F)C(F)(F)F)nc2C(F)(F)F)ccc1Cl)C1CC1` (stereo not shown) [Ib-37]: the logP is listed as 3.76^a).

`O=C(NCC(F)(F)F)c1cc(NC(=O)c2cnc(C(F)(F)C(F)(F)F)nc2C2CC2)ccc1Cl` [Ib-31]: the logP is given as 3.65^a).

Turning to `CN(C(=O)c1c(C(F)(F)F)c(C(F)(F)C(F)(F)F)nn1C)c1ccc(Cl)c(C(=O)NC2CC2)c1` [Ik-132], the logP is listed as 3.30^a).

Turning to `CCN(CC)C(=O)COC(=O)c1cc(NC(=O)c2c(C(F)(F)F)c(C(F)(F)C(F)(F)F)nn2C)ccc1Cl` [Ik-109], the logP was 4.11^a).

In the case of `Cn1nc(C(F)(F)C(F)(F)F)c(C(F)(F)F)c1C(=O)Nc1ccc(Cl)c(C(=O)NCc2ccccc2)c1Cl` [Ik-149], the logP is on record as 4.33^a).

Consider `CC(C)n1nc(C(F)(F)C(F)(F)F)c(C(F)(F)F)c1C(=O)Nc1ccc(Cl)c(C(=O)NC2CC2)c1` [Ik-218], for which the logP is listed as 4.02^a).

For the molecule `Cn1nc(C(F)(F)C(F)(F)F)c(C(F)(F)F)c1C(=O)Nc1cc(C(=O)NC2CC2)c(F)cc1Cl` [Ik-148], the logP was 3.53^a).

In the case of `COCN(C(=O)c1c(C(F)(F)F)c(C(F)(F)C(F)(F)F)nn1C)c1ccc(Cl)c(C(=O)NC2CC2)c1` [Ik-135], the logP is listed as 3.51^a).

`Cn1nc(C(F)(F)C(F)(F)F)c(C(F)(F)F)c1C(=O)Nc1cc(Cl)c(Br)c(C(=O)NCc2ccccc2)c1` [Ik-214]: the logP is 4.42^a).

In the case of `Cc1nc(C(F)(F)C(F)(F)F)nc(C)c1C(=O)Nc1ccc(Cl)c(C(=O)NCC=CCl)c1` [Ib-13], the logP is listed as 3.26^a).

In the case of `Cn1nc(-c2ccc(C(F)(F)F)cc2)c(Br)c1C(=O)Nc1ccc(Cl)c(C(=O)NCC(F)(F)F)c1` [Ik-253], the logP is recorded as 3.99^a).

`Cn1nc(C(F)F)c(C(F)(F)F)c1C(=O)Nc1ccc(Cl)c(C(=O)NCC=CCl)c1` [Ik-232]: the logP is 2.92^a).

Turning to `CC(C)NC(=O)c1cc(NC(=O)c2ncc(C(F)(F)F)cc2Cl)ccc1Cl` [Ii-2], the logP is given as 2.73^a).

On to `O=C(NC1CC1)c1cc(NC(=O)c2[nH]nc(C(F)(F)F)c2C(F)(F)F)ccc1Cl` [Ik-197], for which the logP is on record as 2.55^a).

As to `C=CCNC(=O)c1cc(NC(=O)c2ccc(C(F)(F)F)nc2Cl)c(C)cc1Cl` [Ir-7], the logP is 2.68^a).

With `CC(C)NC(=O)c1cc(NC(=O)c2nccc(C(F)(F)F)c2Cl)ccc1Cl` [Ie-2], the logP is 2.72^a).

For the molecule `Cn1nc(C(F)(F)C(F)(F)F)c(C(F)(F)F)c1C(=O)Nc1cc(Cl)c(I)c(C(=O)NCC(F)(F)F)c1` [Ik-206], the logP is reported as 4.18^a).

Consider `Cc1nc(C(F)(F)F)ncc1C(=O)Nc1ccc(Cl)c(C(=O)NCC=CCl)c1` [Ib-21], for which the logP is 2.69^a).

`Cn1nc(-c2ccc(OC(F)(F)F)cc2)c(Br)c1C(=O)Nc1ccc(Cl)c(C(=O)NC2CC2)c1` [Ik-251]: the logP was 3.76^a).

Consider `Cn1nc(C(F)(F)C(F)(F)F)c(C(F)(F)F)c1C(=O)Nc1ccc(F)c(C(=O)NC2CC2)c1` [Ik-155], for which the logP was 3.31^a).

Turning to `Cn1nc(C(F)(F)OC(F)(F)C(F)(F)OC(F)(F)F)c(I)c1C(=O)Nc1ccc(Cl)c(C(=O)NC2CC2)c1` [Ik-264], the logP is given as 3.66^a).

In the case of `Cn1nc(C(F)(F)C(F)(F)C(F)(F)C(F)(F)F)c(I)c1C(=O)Nc1ccc(Cl)c(C(=O)NC2CC2)c1` [Ik-265], the logP is recorded as 3.90^a).

As for `Cn1nc(OC(F)F)c(Br)c1C(=O)Nc1ccc(Cl)c(C(=O)NC2CC2)c1` [Ik-237], the logP is listed as 2.51^a).

As to `Cn1nc(C(F)(F)C(F)(F)F)c(C(F)(F)F)c1C(=O)Nc1cc(C(=O)NC2CC2F)c(Cl)cn1` (stereo not shown) [Ik-314], the logP is 3.14^a).

As for `Cn1nc(C(F)(F)C(F)(F)F)c(C(F)(F)F)c1C(=O)Nc1ccc(F)c(C(=O)NCc2ccccc2)c1` [Ik-157], the logP is recorded as 3.95^a).

For `Cn1nc(C(F)(F)F)c(C(F)(F)F)c1C(=O)Nc1ccc(Cl)c(C(=O)NC2CC2)c1` [Ik-195], the logP was 2.89^a).

For `Cn1nc(C(F)(F)C(F)(F)F)c(C(F)(F)F)c1C(=O)Nc1cc(F)c(F)c(C(=O)NC2CC2)c1F` [Ik-169], the logP is given as 3.53^a).

Turning to `O=C(NCC=CCl)c1cc(NC(=O)c2ccc(C(F)(F)F)nc2Cl)ccc1Cl` [Ir-10], the logP is 2.86^a).

With `Cc1nc(C(F)(F)C(F)(F)F)ncc1C(=O)Nc1ccc(Cl)c(C(=O)NCC(F)(F)F)c1` [Ib-24], the logP is on record as 3.16^a).

Turning to `CSc1c(Br)cc(NC(=O)c2c(C(F)(F)F)c(C(F)(F)C(F)(F)F)nn2C)cc1C(=O)NCc1ccccc1` [Ik-199], the logP is on record as 4.43^a).

Take `Cc1nc(C(F)(F)F)ncc1C(=O)Nc1ccc(Cl)c(C(=O)NCc2ccccc2)c1` [Ib-22]: the logP is given as 2.94^a).

Take `CC(C)(F)n1nc(C(F)C(F)(F)F)c(C(F)(F)F)c1C(=O)Nc1ccc(Cl)c(C(=O)NC2CC2)c1` (stereo not shown) [Ik-100]: the logP is 3.39^a).

As to `Cn1nc(C(F)(F)C(F)(F)C(F)(F)F)c(Br)c1C(=O)Nc1ccc(Cl)c(C(=O)NC2CC2)c1` [Ik-73], the logP was 3.58^a).

Consider `Cc1nc(C(F)(F)C(F)(F)F)ncc1C(=O)Nc1ccc(Cl)c(C(=O)NC2CC2)c1` [Ib-23], for which the logP is reported as 2.76^a).

On to `Cn1nc(-c2ccc(OC(F)(F)F)cc2)c(Br)c1C(=O)Nc1ccc(Cl)c(C(=O)NCC(F)(F)F)c1` [Ik-255], for which the logP is listed as 4.15^a).

As to `O=C(NC1CC1)c1cc(NC(=O)c2cnc(OCC(F)(F)C(F)(F)F)cc2C(F)(F)F)ccc1Cl` [Ij-3], the logP is given as 3.44^a).

Take `Cc1nc(C(F)(F)C(F)(F)F)nc(C)c1C(=O)Nc1ccc(Cl)c(C(=O)NCC(F)(F)F)c1` [Ib-12]: the logP is given as 3.22^a).

`CCN(C(=O)c1c(C(F)(F)F)c(C(F)(F)C(F)(F)F)nn1C)c1ccc(Cl)c(C(=O)NC2CC2)c1` [Ik-136]: the logP is listed as 3.55^a).

Turning to `Cn1nc(C(F)(F)C(F)(F)F)c(C(F)(F)F)c1C(=O)Nc1ccc(Cl)c(C(=O)NCC=C(Cl)Cl)c1` [Ik-186], the logP is 4.09^a).

On to `Cn1nc(C(F)(F)C(F)(F)F)c(C(F)(F)F)c1C(=O)Nc1cc(F)c(F)c(C(=O)NC2CC2)c1` [Ik-140], for which the logP was 3.60^a).

For the molecule `O=C(NCC=CCl)c1cc(NC(=O)c2cnc(C(F)(F)C(F)(F)F)nc2C(F)(F)F)ccc1Cl` [Ib-10], the logP is 3.59^a).

Consider `Cn1nc(C(F)(F)C(F)(F)F)c(C(F)(F)F)c1C(=O)Nc1ccc(Cl)c(C(=O)NCC(F)(F)F)c1` [Ik-87], for which the logP is listed as 3.67^a).

The same data set, now with this note: HPLC method a), eluent acetonitrile/water with formic acid; read-out: logP.
In the case of `Cn1ccc(C(F)(F)C(F)(F)C(F)(F)F)n1` [1-Methyl-3-heptafluoropropyl-1H-pyrazole], the chromatographic logP turned out to be 2.84.

Staying with this data set, now noted: HPLC phase inversion (reversed-phase) C18 column, HPLC method a), eluent acetonitrile/water with formic acid; read-out: logP.
For `O=C(O)c1[nH]nc(C(F)(F)C(F)(F)F)c1C(F)(F)F` [3-(Pentafluoroethyl)-4-(trifluoromethyl)-1H-pyrazole-5-carboxylic acid], the chromatographic logP was 2.

Consider `O=C(NC1CC1)c1cc(NC(=O)c2cnc(Cl)cc2C(F)(F)F)ccc1Cl` [2-chloro-N-[4-chloro-3-(cyclopropylcarbamoyl)phenyl]-4-(trifluoromethyl)pyridine-5-carboxamide], for which the chromatographic logP came to 2.35.

Turning to `CCOC(=O)c1cnc(C(F)(F)C(F)(F)F)nc1C(F)F` [Ethyl 4-(difluoromethyl)-2-(pentafluoroethyl)pyrimidine-5-carboxylate], the chromatographic logP is 3.42.

`Cn1nc(OC(F)F)c(C(F)(F)F)c1C(=O)Nc1ccc(Cl)c(C(=O)NCC(F)(F)F)c1` [Ik-126, N-{4-Chloro-3-[(2,2,2-trifluoroethyl)carbamoyl]phenyl}-3-(difluoromethoxy)-1-methyl-4-(trifluoromethyl)-1H-pyrazole-5-carboxamide]: the chromatographic logP stood at 3.01.

Regarding `Cc1nc(C(F)(F)C(F)(F)F)ncc1C(=O)O` [4-Methyl-2-(pentafluoroethyl)pyrimidine-5-carboxylic acid], the chromatographic logP is 1.97.

Regarding `Cn1nc(C(F)(F)F)c(C(F)(F)F)c1C(=O)Nc1ccc(Cl)c(C(=O)NCC(F)(F)F)c1` [Ik-125, N-{4-Chloro-3-[(2,2,2-trifluoroethyl)carbamoyl]-phenyl}-1-methyl-3,4-bis(trifluoromethyl)-1H-pyrazole-5-carboxamide], the chromatographic logP amounted to 3.25.

For `Cn1nc(C(F)C2CC2)c(C(F)(F)F)c1C(=O)Nc1ccc(Cl)c(C(=O)NC2CC2)c1` (stereo not shown) [Ik-233, N-[4-Chloro-3-(cyclopropylcarbamoyl)phenyl]-3-[cyclopropyl(fluoro)methyl]-1-methyl-4-(trifluoromethyl)-1H-pyrazole-5-carboxamide], the chromatographic logP is 2.76.

For `Cc1nc(C(=O)Nc2ccc(Cl)c(C(=O)O)c2)c(C(F)(F)F)c(C(F)(F)C(F)(F)F)n1` [2-chloro-5-({[2-methyl-6-(pentafluoroethyl)-5-(trifluoromethyl)pyrimidin-4-yl]carbonyl}amino)benzoic acid], the chromatographic logP came out at 3.3.

The data set is the same for the next values; noted with them: HPLC phase inversion (reversed-phase) C18 column, HPLC on C18 phase inversion column, method a); read-out: logP.
`Cn1nc(OC(F)F)c(C(F)(F)F)c1C(=O)Nc1ccc(Cl)c(C(=O)NCC(F)(F)F)c1` [Ik-126, N-{4-Chloro-3-[(2,2,2-trifluoroethyl)carbamoyl]phenyl}-3-(difluoromethoxy)-1-methyl-4-(trifluoromethyl)-1H-pyrazole-5-carboxamide]: the chromatographic logP stood at 3.01.

As for `Cn1nc(C(F)(F)F)c(C(F)(F)F)c1C(=O)Nc1ccc(Cl)c(C(=O)NCC(F)(F)F)c1` [Ik-125, N-{4-Chloro-3-[(2,2,2-trifluoroethyl)carbamoyl]-phenyl}-1-methyl-3,4-bis(trifluoromethyl)-1H-pyrazole-5-carboxamide], the chromatographic logP was determined as 3.25.
